How the values were obtained:
calreticulin (ecto-CRT) = assay: Immunogenic cell death analysis: calreticulin on the surface of tumor cells by flow cytometry; type: cell-based; details: compared to the control
Experimental: Calreticulin is one of the most important molecules in the immunogenic cell death process. When the calreticulin appears on membranes of tumor cell, a strong signal for phagocytotic cells including dendritic cells may be generated to cause the phagocytotic cells to attack dying tumor cells. This is the most significant “eat me” signal for immune cells. Whether or not immunogenic cell death was induced by the anticancer agents used in the present invention was assessed through the quantitative change of calreticulin expressed on the surface of cancer cells after the treatment with the anticancer agents. Single cells isolated from the tumor were incubated with anti-calreticulin antibody (ratio of 1:50) as a primary antibody at 4° C. for 30 minutes, and then washed 2 times with PBS.

RENCA = assay: Tumor growth inhibition, animal model for renal cancer (RENCA); type: in vivo, BALB/c mice; details: Dunnione 40 mg/kg oral every day from 7th day
Experimental: (§1) All mice used in the experiments were raised in a sterile animal room with constant temperature (22° C. to 26° C.) and constant humidity (55% to 60%), acclimatized for 1 week while sufficiently supplying typical solid feed (Samtako Inc., Korea) and water, and then used. All experiments were conducted after obtaining approval from the Institutional Animal Care and Use Committee in accordance with the laboratory animal care and ethics regulations of the Institutional Animal Care and Use Committee of Wonkwang University.
(§2) 7-week-old BALB/c or C57BL/6 mice were used, and subcutaneously inoculated using a 1-mL insulin syringe within 30 minutes after mixing the mouse cancer cells with 0.2 mL of PBS.
(§3) After the cancer cell line was subcutaneously implanted, the administration of drugs was started when the size of the cancer reached 50 to 100 mm^3. The volumes (mm^3) of the tumors, which were generated after the inoculation, were measured at intervals of 3 days using a caliper, calculation was performed using the formula of […], and then the results thereof were compared.
(§4) In addition, sole administration or co-administration of respective drugs was performed according to the administration schedules listed in Tables 4 to 34 below, the tumor volumes were then measured according to the tumor proliferation assessment method described in Example 1.1, the tumor growth inhibition rates (TGI (O)=(Vc−Vt)/Vc×100(%); Vc: tumor volume of control, Vt tumor volume of experimental group) were calculated based the tumor volumes, and the results thereof are shown in the respective tables and FIGS. 1 to 31.

B16F10 = assay: Tumor growth inhibition, animal model for skin cancer (B16F10); type: in vivo,  mice; details: Experimental Example 26; Dunnione 40 mg/kg oral every day from 8th day; Everolimus 0.5 mg/kg oral every day from 8th day
Experimental: as §1, §2, §3, §4

4T1 = assay: Tumor growth inhibition, animal model for breast cancer I (4T1); type: in vivo, BALB/c mice; details: Experimental Example 10; Dunnione 40 mg/kg oral every day from 5th day; Anti-CTLA4 antibody 200 μg/head i.p. at intervals of 3 days from 5th day, 4 times; Mitoxantrone 6 mg/kg i.p. once on 5th day
Experimental: as §1, §2, §3, §4

MC38 = assay: Tumor growth inhibition, animal model for colorectal cancer I (MC38); type: in vivo, C57BL/6 mice; details: Experimental Example 4; Dunnione 40 mg/kg oral every day from 7th day; Anti-LAG3 antibody 200 μg/head i.p. on 7th, 10th, 14th, 17th days; Oxaliplatin 6 mg/kg i.p. on 7th and 14th days
Experimental: as §1, §2, §3, §4

## CCN1CCN(Cc2ccc(Nc3ncc(F)c(-c4cc(F)c5nc(C)n(C(C)C)c5c4)n3)nc2)CC1 [Abemaciclib]
Calreticulin (ecto-CRT); Breast cancer, EMT6
  Expression rate (%) of calreticulin on cell surface: 263%

## COc1cccc2c1C(=O)c1c(O)c3c(c(O)c1C2=O)C[C@@](O)(C(=O)CO)C[C@@H]3O[C@H]1C[C@H](N)[C@H](O)[C@H](C)O1 [Adriamycin]
Calreticulin (ecto-CRT); Breast cancer, 4T1
  Expression rate (%) of calreticulin on cell surface: 307%

## CO[C@H]1C[C@@H]2CC[C@@H](C)[C@@](O)(O2)C(=O)C(=O)N2CCCC[C@H]2C(=O)O[C@H]([C@H](C)C[C@@H]2CC[C@@H](OCCO)[C@H](OC)C2)CC(=O)[C@H](C)/C=C(\C)[C@@H](O)[C@@H](OC)C(=O)[C@H](C)C[C@H](C)/C=C/C=C/C=C/1C [Everolimus, reference compound]
RENCA; Experimental Example 15, Anti-CTLA4 antibody 200 μg/head i.p. at intervals of 3 days from 7th day, 7 times, Everolimus 250 μg/kg oral every day from 7th day
  TGI (%): 72.8%
Calreticulin (ecto-CRT); Liver cancer, Hapa1-6
  Expression rate (%) of calreticulin on cell surface: 892%
Calreticulin (ecto-CRT); Renal cancer, RENCA
  Expression rate (%) of calreticulin on cell surface: 134%
Calreticulin (ecto-CRT); Skin cancer (melanoma), B16F10
  Expression rate (%) of calreticulin on cell surface: 216%
B16F10
  TGI (%): 28.5%

## O=C1c2c(O)ccc(O)c2C(=O)c2c(NCCNCCO)ccc(NCCNCCO)c21 [Mitoxantrone, reference compound]
4T1
  TGI (%): 16.3%
Calreticulin (ecto-CRT); Breast cancer, 4T1
  Expression rate (%) of calreticulin on cell surface: 385%

## O=C1[O][Pt]2([NH][C@@H]3CCCC[C@H]3[NH]2)[O]C1=O [Oxaliplatin, reference compound]
MC38
  TGI (%): 5.6%

## CC(=O)O[C@H]1C(=O)[C@@]2(C)[C@H]([C@H](OC(=O)c3ccccc3)[C@]3(O)C[C@H](OC(=O)[C@H](O)[C@@H](NC(=O)c4ccccc4)c4ccccc4)C(C)=C1C3(C)C)[C@]1(OC(C)=O)CO[C@@H]1C[C@@H]2O [Paclitaxel]
Calreticulin (ecto-CRT); Skin cancer (melanoma), B16F10
  Expression rate (%) of calreticulin on cell surface: 186%

## CNC(=O)c1cc(Oc2ccc(NC(=O)Nc3ccc(Cl)c(C(F)(F)F)c3)c(F)c2)ccn1 [Regorafenib]
Calreticulin (ecto-CRT); Colorectal cancer, MC38
  Expression rate (%) of calreticulin on cell surface: 134%
Calreticulin (ecto-CRT); Skin cancer (melanoma), B16F10
  Expression rate (%) of calreticulin on cell surface: 166%

## CNC(=O)c1cc(Oc2ccc(NC(=O)Nc3ccc(Cl)c(C(F)(F)F)c3)cc2)ccn1 [Sorafenib, reference compound]
RENCA; Experimental Example 16, Sorafenib 10 mg/kg oral every day from 7th day
  TGI (%): 29.4%
Calreticulin (ecto-CRT); Liver cancer, Hapa1-6
  Expression rate (%) of calreticulin on cell surface: 435%

## CNC(=O)c1cccc(-c2ccc3c(N4CCOC[C@@H]4C)nc(N4CCOC[C@@H]4C)nc3n2)c1 [Vistusertib]
Calreticulin (ecto-CRT); Colorectal cancer, MC38
  Expression rate (%) of calreticulin on cell surface: 175%
Calreticulin (ecto-CRT); Renal cancer, RENCA
  Expression rate (%) of calreticulin on cell surface: 341%
Calreticulin (ecto-CRT); Skin cancer (melanoma), B16F10
  Expression rate (%) of calreticulin on cell surface: 145%

Source: patent US20230255904A1, “PHARMACEUTICAL COMPOSITION FOR PREVENTING OR TREATING CANCER COMPRISING NAPHTHOQUINONE-BASED COMPOUND AND IMMUNE CHECKPOINT INHIBITOR AS ACTIVE INGREDIENTS” (NADIANBIO LTD., priority 2020, published 2023)
